The text below walks through data of patent publication US10920265B2, “Compounds and methods for detection of enzymes that remove methyl succinyl groups from epsilon-amino lysine moieties” (Enzo Life Sciences, Inc., priority 2011, dated 2021).

*: point of attachment. AMC = Cc1cc(=O)oc2cc(N*)ccc12

For experiment [1], the target named is T1, bovine pancreatic trypsin (Bos taurus, UniProt P00760).
T1 construct: purchased ENZO Life Sciences BML-KI105 or BML-KI176; host or cells: bovine pancreas
T1 sequence (P00760 24-246): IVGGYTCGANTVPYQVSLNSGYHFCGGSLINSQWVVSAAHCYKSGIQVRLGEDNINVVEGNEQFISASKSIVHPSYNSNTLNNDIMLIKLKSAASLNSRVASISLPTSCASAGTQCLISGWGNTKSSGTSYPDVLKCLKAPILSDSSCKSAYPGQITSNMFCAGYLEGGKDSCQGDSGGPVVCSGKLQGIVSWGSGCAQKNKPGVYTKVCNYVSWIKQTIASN
Kind of experiment: Trypsin release of AMC from lysyl-AMC compounds. The format is biochemical. As to conditions: 1 μM compound, trypsin 2 mg/ml, room temperature. The method, then: FIG. 2 is a graph showing that trypsin treatment releases fluorescent AMC from Ac-Lys-AMC but not Ac-Lys(Succinyl)-AMC. Samples (100 μl) of 1 μM Ac-Lys-AMC and 1 μM Ac-Lys(Succinyl)-AMC in a buffered solution (50 mM Tris/HCl, pH 8.0, 137 mM NaCl, 2.7 mM KCl, 1 mM MgCl2) were treated with bovine pancreatic trypsin (2 mg/ml) for the indicated times at room temperature. Samples were in the wells of a 96-well, ½-area white microplate and fluorescence was measured at 1 min. intervals at the excitation and emission wavelengths for free AMC (Excitation: 360 nm; Emission: 460 nm) in a Synergy 2 microplate reading fluorimeter (BioTek), Gain 40. The data points at 0 min. represent the fluorescence of equivalent 1 μM Ac-Lys(Succ.)-AMC and 1 μM Ac-Lys-AMC samples in the absence of trypsin.
As noted in the Background of the Invention section above, the protease trypsin catalyzes the hydrolytic cleavage of amide bonds on the carboxyl side of unmodified lysine residues. Hydrolytic cleavage of lysyl amide bonds with AMC or rhodamine 110 (dye components of Compounds 1 and 2, respectively) releases the free amino forms of the dyes. This elicits an upward shift of the dye's fluorescence emission peak wavelength (bathochromic shift), for example to 460 nm for AMC or 530 nm for rhodamine 110. If succinylation of the ε-amino function of the lysine moieties in compounds such as 1 and 2 renders the amide bond between the carbonyl of lysine and the amino of dye groups such as AMC or rhodamine resistant to trypsin cleavage then, upon desuccinylation, the lysine/dye amide bond would become cleavable by trypsin. Note that removal of a single succinyl group from 2, followed by cleavage of the desuccinylated lysine would yield a compound with a single free amino function, Ac-K(Succ.)-R110. Monoamides of rhodamine 110 also have increased fluorescence emission at 530 nm relative to 2, although they are less fluorescent than rhodamine 110 itself (Liu et al., 1999). Thus, monitoring the fluorescence at the peak wavelength of the amino form of the dye would allow the desuccinylation reaction to be quantified. A schematic for such an assay is depicted for Compound 1 and SIRT5 in FIG. 1. Trypsin treatment (2 mg/ml) elicits an immediate increase in the fluorescence of a solution of Ac-Lys-AMC (Compound 6—FIG. 1) at the excitation and emission wavelengths of free AMC (Ex. 360 nm; Em. 460 nm), with maximum fluorescence achieved in 2 min. or less and ˜⅔ of that maximum occurring in 1 min. (FIG. 2).

In a further experiment the test system is HeLa cell extracts. Nature of the experiment: HeLa cell extract Ac-Lys(ε-succinyl)-AMC desuccinylation activity. The format is biochemical, human. As to conditions: 50 μM substrate, 500 μM NAD^+, no inhibitor, 2 hr., 37° C. How it is done:
Enzyme and extract catalog products obtained from ENZO Life Sciences included: HDAC1 (Cat. # BML-SE456), HDAC2 (Cat. # BML-SE500), HDAC3 (Cat. # BML-SE507), HDAC3/NCOR1 Complex (Cat. # BML-SE515), HDAC6 (Cat. # BML-SE508), HDAC8 (Cat. # BML-SE145), HDAC10 (Cat. # BML-SE559), HDAC11 (Cat. # BML-SE560), SIRT1 (Cat. # BML-SE239), SIRT2 (Cat. # BML-SE251), SIRT3 (Cat. # BML-SE270), SIRT5 (Cat. # BML-SE555), HeLa Nuclear Extract (Cat. # BML-KI140), Trypsin (“Fluor de Lys Developer”, 80 mg/ml bovine trypsin in 1 mM HCl, Cat. # BML-KI105 or “Fluor de Lys Developer II”, 80 mg/ml bovine trypsin in 1 mM HCl, Cat. # BML-KI176). […] Enzymes obtained from BPS Bioscience, San Diego, Calif. included: human recombinants SIRT4 (Cat. #50015), SIRT6 (Cat. #50017), SIRT7 (Cat. #50018). HeLa whole cell extract was obtained from HeLa S3 cells (American Type Culture Collection) grown in a medium of MEM/10% fetal bovine serum (FBS) as follows: 1) 9×10^6 cells were suspended by trypsinization, followed by a phosphate buffered saline (PBS) rinse and addition of MEM/10% FBS (1.5 mL) to eliminate trypsin before transfer to a 15 mL conical tube; 2) cells were sedimented by a low speed centrifugation, gently resuspended in PBS and sedimented again and supernatant removed; 3) lysis was induced by resuspension in 0.8 mL 50 mM Tris/HCl, pH 8.0 with the non-denaturing detergent NP-40 (0.5%), placement on ice and brief vortexing every 5 min. for 30 min.; 4) 100 μl of a concentrated salt solution in the same buffer was added in order to bring the final buffer composition to 50 mM Tris/C1, pH 8.0, 137 mM NaCl, 2.7 mM KCl, 1 mM MgCl2, 0.5% NP-40; 5) particulate matter was cleared by centrifugation and the cleared lysate supernatant transferred to a 1.5 mL Eppendorf tube and stored on ice until use in activity assays.
Assays were performed at 37° C., according to the manufacturer's instructions for the “SIRT1 Fluorometric Drug Discovery Kit” from Enzo Life Sciences (ELS) (Cat. # BML-AK555), with exceptions described as follows. […]

A further experiment addresses T2, SIRT5 (Homo sapiens, UniProt Q9NXA8).
T2 sequence (Q9NXA8 37-310): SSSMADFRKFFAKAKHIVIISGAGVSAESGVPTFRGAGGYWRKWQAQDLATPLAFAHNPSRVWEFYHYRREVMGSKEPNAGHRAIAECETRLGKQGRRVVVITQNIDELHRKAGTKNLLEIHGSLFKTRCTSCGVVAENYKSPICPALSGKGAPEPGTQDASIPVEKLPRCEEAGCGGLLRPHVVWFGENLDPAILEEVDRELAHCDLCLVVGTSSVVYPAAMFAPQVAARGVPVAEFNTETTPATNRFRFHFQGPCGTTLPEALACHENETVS
Conditions: high and uncertain; maximum substrate concentration of 5 mM; read-out: Km estimate; cited from earlier work.

Turning to `CC(=O)N[C@@H](CCCCNC(=O)CCC(=O)O)C(=O)Nc1ccc2c(C)cc(=O)oc2c1` [Compound 1, N—(N^α-acetyl-L-Lysine(N^ε-succinyl))-AMC], the “Trypsin cleavage / change in fluorescence” value in experiment [1] is listed as “complete resistance to the trypsin cleavage”; in experiment [1] (listed as Ac-Lys(Succ.)-AMC), “no change in fluorescence”. In the experiment on HeLa cell extracts, the “Maximum fluorescence increase over 0 hr./NL” value is on record as 22,000.

Regarding “Ac-Arg-His-Lys-Lys(ε-acetyl)-AMC (Ac-RHKK(Ac)-{AMC}; SMILES CC(=O)NCCCC[C@H](NC(=O)[C@H](CCCCN)NC(=O)[C@H](Cc1c[nH]cn1)NC(=O)[C@H](CCCNC(=N)N)NC(C)=O)C(=O)Nc1ccc2c(C)cc(=O)oc2c1) [Ac-RHKK(Ac)-AMC, p53 peptide fluorogenic deacetylase substrate, Cat. # BML-KI177, reference compound]”, in the experiment with SIRT5, the Km is 8.9 mM.
